Our source for the cytotoxicity values is ChEMBL document CHEMBL3507680, “University of Dundee, Gates Library screen for HepG2 cell viability”.

The nature of this data set: Human HepG2 cell viability assay in 384 well format. The format is toxicity, cell-based. Details: dose 125 nL, time 70.5 hour; concentration not given beside the values. To be noted: HepG2 cells, read-out: Inhibition.

Turning to `CC(NC(=O)Nc1ccc(OC2CCCC2)cc1)c1nc[nH]n1` (stereo not given), the cytotoxicity at 70.5 h is 12.8%.
The same measure for `CC(NC(=O)Nc1cc(F)cc(F)c1)c1nc[nH]n1` (stereo not given): -5.9%.
In the case of `CC(C)c1nn(C)c(N(C)C)c1CNCc1cccnc1`, the cytotoxicity at 70.5 h is -1.06%.
As for `COc1ccc(NC(=O)NC(C)c2nc[nH]n2)cc1Cl` (stereo not given), the cytotoxicity at 70.5 h is -2.57%.
Next, `Cc1noc(CN2CCN(CCO)CC2)n1`: -3.7%.
The same measure for `CCC(C)(NCC(=O)OC)c1nc(C)cs1` (stereo not given): -1.12%; for `CC(C)(C)OC(=O)NCC1CCCCN1Cc1cccc(C(N)=O)c1` (stereo not given): 1.21%.
For `Cc1nn(C)c(N(C)C)c1CNC(C)c1cccnc1` (stereo not given), the cytotoxicity at 70.5 h was -6.25%.
Next, `COc1ccccc1C(CNC(=O)NCc1cc[nH]n1)N1CCCC1` (stereo not given): 12.7%; `Cc1cnn(CC2CCCN2Cc2cc(=O)n3cc(C)ccc3n2)c1` (stereo not given): -1.28%; `CN(C)C(CNC(=O)NCc1cc[nH]n1)c1ccco1` (stereo not given): 0.0309%.
Next, `Clc1cccc(CNC2CCN(CCc3ccncc3)CC2)c1`: 0.526%; `CC(C)n1c(C2CCCN(CC(=O)NC3CC3)C2)nc2ccccc21` (stereo not given): -1.26%; `CC(NCc1ccc(-c2ccc(F)cc2)o1)c1nnc2n1CCC2` (stereo not given): -9.83%.
Turning to `Cc1cc(NC(=O)c2nc(N3CCCC3)ncc2Cl)ccc1Br`, the cytotoxicity at 70.5 h was -5.96%.
Next, `NCC1(c2cccc(F)c2)CCOCC1`: 19.1%; `CCN(CC)c1ccc(NC(=O)N2CCc3sccc3C2)cn1`: -2.76%.
On to `O=C(Nc1ccc(N2CCOCC2)nc1)N1CCc2sccc2C1`, for which the cytotoxicity at 70.5 h stood at 46.1%.
Next, `COc1cc(CN(C)C(=O)NCCNC(=O)C2CC2)ccc1SC`: -16%; `CCN(CCCNC(=O)c1ccc(C)[nH]c1=O)S(C)(=O)=O`: -0.303%; `O=C(c1cc2c([nH]c1=O)CCC2)N1CCCC1c1ccccc1` (stereo not given): -4.54%.
The same measure for `O=C(c1cc2c([nH]c1=O)CCC2)N1CCCC1c1ccccn1` (stereo not given): -2.83%.
Next, `COCCN(CCC#N)S(=O)(=O)c1ccc(F)cc1F`: 0.44%; `CCc1nc(CCNC(=O)NC2CCN(C(C)C)C2)sc1C` (stereo not given): -3.64%.
`CSc1cc2c(cc1NC(=O)NCCn1ccnc1)OCCO2`: the cytotoxicity at 70.5 h was -3%.
Next, `O=C(Nc1cc(Cl)ccn1)c1nc(N2CCCC2)ncc1Cl`: -2.78%.
The same measure for `CCCn1nc2c(cc1=O)CN(Cc1c(C)noc1C)CC2`: -6.66%; for `CCC(C)(CO)NC(=O)Nc1cc2c(cc1SC)OCCO2` (stereo not given): -1.22%; for `CC(C(=O)Nc1ccnn1C(C)C)N1CCN(Cc2ccon2)CC1` (stereo not given): 1.23%.
Next, `O=C(Nc1ccc(CC(=O)N2CCSCC2)cc1)NC1CC1`: 14.5%; `CN1CCC(N(C)C(=O)CSc2ccc(F)c(F)c2)C1=O` (stereo not given): -2.06%.
As to `CC(C)Nc1ncccc1C(=O)NCc1ccnn1C`, the cytotoxicity at 70.5 h is 6.47%.
The same measure for `CC(C)Nc1ncccc1C(=O)NCc1cnc(N(C)C)n1C`: -14.4%.
The same measure for `CCN(Cc1cccc(-c2ccncc2)c1)S(N)(=O)=O`: -2.79%; for `Cc1cc(NCC2(O)CCOCC2)c2ccccc2n1`: -4.68%; for `CS(=O)(=O)NCCN1CCOC2(CCc3ccccc32)C1` (stereo not given): -7.71%.
As to `OC1(CNc2cc(C(F)(F)F)nc3ccccc23)CCOCC1`, the cytotoxicity at 70.5 h was -4.81%.
On to `CCOc1ccccc1C(CC(=O)Nc1ccccc1)NC(C)=O` (stereo not given), for which the cytotoxicity at 70.5 h was -6.59%.
Take `CCCN(C(=O)c1ocnc1C)C1CCCN(Cc2ccccc2)C1` (stereo not given): the cytotoxicity at 70.5 h is -5.56%.
Next, `CSc1ccc(NCc2csc(CS(C)(=O)=O)n2)cc1F`: -1.97%; `O=C(N1CCC(Oc2ccncc2)C1)C1(c2cccc(F)c2)CC1` (stereo not given): -1.35%.
As to `CSc1ccc(NCc2csc(C)n2)cc1F`, the cytotoxicity at 70.5 h was -0.888%.
Next, `CC(C)c1ccc(CCC(=O)N(C)C2CCN(C)C2=O)cc1` (stereo not given): -1.43%; `c1ccc2c(c1)CCC21CN(CCc2ccncc2)CCO1` (stereo not given): -4.57%.
Consider `Cc1noc(CNc2cccc(C(=O)N3CCCC(O)C3)c2)n1` (stereo not given), for which the cytotoxicity at 70.5 h is -6.36%.
Next, `CCN(Cc1cccc(-c2ccncc2)c1)S(C)(=O)=O`: -4.62%.
Next, `Cc1n[nH]c(C2CN(C(=O)c3ccc(=O)n(C)c3)CCO2)n1` (stereo not given): 25.4%; `CC(C)N(C)C(=O)C1CCN(Cc2cc3c(cc2O)CCC3)CC1`: -5.17%.
Consider `Cc1cccn2cc(CN3CCCC(c4ccn[nH]4)C3)nc12` (stereo not given), for which the cytotoxicity at 70.5 h amounted to 0.654%.
The same measure for `CN(Cc1ccsc1)C(=O)c1ccc(F)c(NS(C)(=O)=O)c1`: -3.77%; for `CN(CC(F)(F)F)C(=O)c1ccc(F)c(NS(C)(=O)=O)c1`: -1.16%.
Next, `Cc1cc(NC(=O)CN2CCCC(Cn3cncn3)C2)no1` (stereo not given): -3.46%; `CC(C)(C)NS(=O)(=O)c1ccccc1CNCc1ccccc1`: -5.72%.
Next, `CC(C)c1cc(NC(=O)CN2CCCC(Cn3cncn3)C2)on1` (stereo not given): 17.9%.
In the case of `O=C(Nc1ccnc2ccnn12)c1ccc(NC2CC2)nc1`, the cytotoxicity at 70.5 h was -1.35%.
Next, `Cc1cccn2cc(CN3CCCC(c4noc(C5CC5)n4)C3)nc12` (stereo not given): 5.44%; `O=C(c1[nH]nc(C2CC2)c1Cl)N1CCN(C2CC2)C(=O)C1`: -1.73%.
For `Cc1nn(C)c(C)c1OCC(=O)N1CCCC1`, the cytotoxicity at 70.5 h was -6%.
Next, `O=c1[nH]c2ccccc2c(=O)n1Cc1nnnn1C1CC1`: 2.86%; `Cc1ccc(C(C)(O)CNC(=O)c2sccc2OC(F)F)o1` (stereo not given): -12%.
Next, `Cc1ccc(C(C)(O)CNC(=O)c2scnc2C)o1` (stereo not given): -3.68%; `CCC(C)(C)C(=O)NCCCOC1CCOC1` (stereo not given): 2.9%.
The same measure for `O=C(c1ncoc1C1CCCO1)N1CC2(CCCC2)c2ccccc21` (stereo not given): -6.29%; for `COCCN(C)c1ccc(NCc2cccnc2)nc1`: 5.65%.
`O=C(c1cc[nH]c(=O)c1)N1CCn2c(nnc2-c2ccccc2)C1`: the cytotoxicity at 70.5 h is -4.86%.
Next, `CCOC(C)c1nc(Cn2cc(C(=O)NC)ccc2=O)cs1` (stereo not given): -4.29%.
The same measure for `Cc1cnn(C2CCCN(C(=O)c3c(C)oc(C)c3C)C2)c1` (stereo not given): -0.501%.
Next, `CNC(=O)Cc1ccccc1NC(=O)C1CCCC1`: 29.2%; `CCC1CN(c2cnn(-c3ccccc3)c(=O)c2Cl)CCO1` (stereo not given): -12.4%; `COc1ccc(C)cc1CCNS(C)(=O)=O`: -10.4%.
For the molecule `COCCOCCNS(=O)(=O)C1CS(=O)(=O)c2ccccc21` (stereo not given), the cytotoxicity at 70.5 h was -7.79%.
The same measure for `CCC(=O)N1CSCC1C(=O)Nc1ccccc1-c1cccs1` (stereo not given): -9.09%; for `CCC(=O)N1CCN(C(=O)Nc2ccccc2-c2cccs2)CC1`: -5.63%.
Next, `Cn1ccnc1CCNS(=O)(=O)Cc1cccc(C#N)c1`: -8.33%.
The same measure for `Cc1nc(C2(NCc3ccc(C#N)cc3F)CCCC2)no1`: -18.6%.
With `CS(=O)(=O)N1CCC(CSc2ccccc2)C1` (stereo not given), the cytotoxicity at 70.5 h is -13.4%.
The same measure for `O=C(NC1CCCN(c2ccc(OC(F)F)cc2)C1)c1cnccn1` (stereo not given): -6.56%.
For the molecule `CC(C)NC(=O)CC(C)NC(=O)N(C)Cc1cc(Cl)cn1C` (stereo not given), the cytotoxicity at 70.5 h is -8.56%.
Next, `O=C(Nc1ccccc1-c1cccs1)N1CCN(CC(F)F)CC1`: -11.6%.
With `Cc1cccc(C)c1CNC1(CCO)CCOCC1`, the cytotoxicity at 70.5 h was -16%.
Next, `O=C(Nc1ccccc1-c1cccs1)N1CCOCC1`: -13.2%.
In the case of `CCCN(CCC)S(=O)(=O)NCCc1cc(C)ccc1OC`, the cytotoxicity at 70.5 h was -8.2%.
With `CN(Cc1ccco1)C(=O)NCC(c1cccs1)N(C)C` (stereo not given), the cytotoxicity at 70.5 h is -11.2%.
The same measure for `CCN(Cc1ccco1)C(=O)NCC(c1cccs1)N(C)C` (stereo not given): 20.6%.
Take `CCc1ccc(CNc2ccccc2CN2CCC(O)CC2)o1`: the cytotoxicity at 70.5 h is -9.23%.
`COc1cc(OC)cc(C2(O)CCN(Cc3ncc(C)o3)CC2)c1`: the cytotoxicity at 70.5 h came out at 18.5%.
Next, `CC(C)c1nc2c(n1C)CCN(CCc1ccccn1)C2`: -4.15%.
The same measure for `CCCS(=O)(=O)N1CCCC1c1cccc(N(C)C)c1` (stereo not given): -11.2%; for `CCN(CC)C(=O)C1CCN(c2ccc(Cl)cc2C#N)CC1`: 10.1%.
Next, `Cc1ccc(C2CSCCN2C(=O)c2ccnc(N(C)C)c2)o1` (stereo not given): 18.6%.
Turning to `N#Cc1ccc(CN2CCNC(=O)C2c2cccs2)cc1` (stereo not given), the cytotoxicity at 70.5 h was -3.15%.
The same measure for `CCCC(=O)N(C)c1cc(C#N)c2ccccc2n1`: -2.82%; for `CN(C(=O)CCc1nc(C2CC2)no1)c1cc(C#N)c2ccccc2n1`: 0.74%.
The same measure for `Cc1ccc(C2CSCCN2C(=O)c2cccs2)o1` (stereo not given): 19.9%.
The same measure for `Cc1cc(F)ccc1S(=O)(=O)N1CCN(C)c2ccncc21`: 4.79%; for `O=C(NCC(CO)Cc1ccc(Cl)cc1)c1ccncc1F` (stereo not given): -1.03%; for `CNC(=O)c1cc(C)ccc1NCc1cn2cc(C)ccc2n1`: -2.87%.
Take `COCCNC(=O)N1CCCCC1CNC(=O)Nc1ccccc1` (stereo not given): the cytotoxicity at 70.5 h was -3.88%.
Next, `OC(COCc1cccs1)Cn1cc(-n2cccc2)cn1` (stereo not given): 2.56%; `CC(=O)Nc1cc2c(cc1C)OCO2`: 21.5%.
The same measure for `CC1c2cccn2CCN1C(=O)CCc1nc(C2CC2)no1` (stereo not given): -8.57%.
On to `CC(=O)N1CCN(C(C)c2ccc(Br)cc2)CC1` (stereo not given), for which the cytotoxicity at 70.5 h is -0.505%.
Next, `COCCNC(=O)N1CCCC1COc1ccccc1` (stereo not given): -8.27%.
Next, `CC(=O)N1CCSCC1c1ccc(C)o1` (stereo not given): -8.59%; `OCCN1CCN(CCOCC(F)(F)F)CC1`: 10.9%.
